Where two headings read alike, the source gives them in different places.
What was measured:
Assay type in all cases: cell-based
[1] = biological target: proteins of HEK293T cells transiently overexpressing caspase-6 (Homo sapiens, UniProt Q9BRX8); conditions: Probe; protein FAM213A Q9BRX8
[2] = biological target: proteins of HEK293T cells transiently overexpressing caspase-6 (Homo sapiens, UniProt P19013); conditions: Probe; protein KRT4 P19013
[3] = biological target: proteins of HEK293T cells transiently overexpressing caspase-6 (Homo sapiens, UniProt P07814); conditions: exp_ref Probe; protein EPRS (P07814); analysis C6
[4] = biological target: proteins of HEK293T cells transiently overexpressing caspase-6 (Homo sapiens, UniProt P35998); conditions: exp_ref Probe; protein PSMC2 (P35998); analysis C6
[5] = biological target: proteins of HEK293T cells transiently overexpressing caspase-6 (Homo sapiens, UniProt P12004); conditions: protein PCNA (P12004)
[6] = biological target: proteins of HEK293T cells transiently overexpressing caspase-6 (Homo sapiens, UniProt Q99798); conditions: exp_ref Probe; protein ACO2 (Q99798); analysis C6
[7] = biological target: proteins of HEK293T cells transiently overexpressing caspase-6 (Homo sapiens, UniProt P54578); conditions: Probe; protein USP14 P54578
[8] = biological target: proteins of HEK293T cells transiently overexpressing caspase-6 (Homo sapiens, UniProt P22087); conditions: exp_ref Probe; protein FBL (P22087); analysis C6
[9] = biological target: T1, proteins of HEK293T cells transiently overexpressing caspase-6 (Homo sapiens, UniProt P30048)
T1 sequence (P30048 62-256): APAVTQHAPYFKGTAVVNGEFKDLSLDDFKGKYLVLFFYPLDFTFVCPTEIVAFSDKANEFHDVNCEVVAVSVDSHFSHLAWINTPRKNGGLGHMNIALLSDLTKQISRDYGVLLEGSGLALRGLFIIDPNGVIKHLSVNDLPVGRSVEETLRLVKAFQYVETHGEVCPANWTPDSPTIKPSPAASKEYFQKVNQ

[10] = biological target: proteins of HEK293T cells transiently overexpressing caspase-6 (Homo sapiens, UniProt Q86VP6); conditions: exp_ref Probe; protein CAND1 (Q86VP6); analysis C6
[11] = biological target: T2, proteins of HEK293T cells transiently overexpressing caspase-6 (Homo sapiens, UniProt O00410); conditions: protein IPO5 (O00410)
T2 sequence (O00410 1-1097): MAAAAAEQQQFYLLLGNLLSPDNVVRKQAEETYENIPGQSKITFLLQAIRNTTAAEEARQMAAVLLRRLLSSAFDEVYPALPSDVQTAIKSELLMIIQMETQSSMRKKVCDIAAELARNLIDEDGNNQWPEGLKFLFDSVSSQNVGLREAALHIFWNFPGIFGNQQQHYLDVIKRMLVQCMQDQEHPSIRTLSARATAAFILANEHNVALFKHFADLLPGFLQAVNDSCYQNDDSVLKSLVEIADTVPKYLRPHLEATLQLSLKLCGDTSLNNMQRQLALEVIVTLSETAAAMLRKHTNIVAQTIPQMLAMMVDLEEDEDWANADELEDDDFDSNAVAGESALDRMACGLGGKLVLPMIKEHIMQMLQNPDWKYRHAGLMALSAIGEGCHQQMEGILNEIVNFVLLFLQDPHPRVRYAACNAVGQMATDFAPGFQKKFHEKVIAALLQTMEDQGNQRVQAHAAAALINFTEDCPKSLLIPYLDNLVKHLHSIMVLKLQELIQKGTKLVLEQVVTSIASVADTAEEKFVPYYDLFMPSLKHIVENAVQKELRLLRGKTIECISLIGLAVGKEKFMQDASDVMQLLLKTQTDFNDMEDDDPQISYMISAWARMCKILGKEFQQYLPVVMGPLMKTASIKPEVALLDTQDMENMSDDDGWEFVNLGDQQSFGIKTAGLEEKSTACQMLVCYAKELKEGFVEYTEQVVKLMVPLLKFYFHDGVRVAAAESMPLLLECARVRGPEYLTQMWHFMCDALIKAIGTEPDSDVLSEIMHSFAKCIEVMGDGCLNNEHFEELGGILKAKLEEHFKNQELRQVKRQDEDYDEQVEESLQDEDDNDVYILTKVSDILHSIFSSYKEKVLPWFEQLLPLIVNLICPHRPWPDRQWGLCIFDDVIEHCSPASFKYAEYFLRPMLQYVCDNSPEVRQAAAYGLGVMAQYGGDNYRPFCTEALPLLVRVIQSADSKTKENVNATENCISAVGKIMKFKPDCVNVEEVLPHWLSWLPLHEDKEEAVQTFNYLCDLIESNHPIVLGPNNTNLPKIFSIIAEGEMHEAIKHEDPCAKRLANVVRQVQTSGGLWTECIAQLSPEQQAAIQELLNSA

[12] = biological target: T3, proteins of HEK293T cells transiently overexpressing caspase-6 (Homo sapiens, UniProt P55212); conditions: for enrich.exp.med: exp_ref Probe
T3 sequence (P55212 24-293): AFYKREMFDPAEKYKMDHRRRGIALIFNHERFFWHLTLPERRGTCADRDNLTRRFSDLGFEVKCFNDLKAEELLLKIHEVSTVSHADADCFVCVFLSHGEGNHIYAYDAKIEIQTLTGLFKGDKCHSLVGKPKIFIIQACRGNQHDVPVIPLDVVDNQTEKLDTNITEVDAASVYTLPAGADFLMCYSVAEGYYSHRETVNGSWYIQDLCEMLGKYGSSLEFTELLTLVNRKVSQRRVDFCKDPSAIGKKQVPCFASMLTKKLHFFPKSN

[13] = biological target: proteins of HEK293T cells transiently overexpressing caspase-6 (Homo sapiens, UniProt P31930); conditions: Probe; protein UQCRC1 P31930
[14] = protein CASP6SMALL (P55212), Expt Probe, analysis C6

Chain of proteins of HEK293T cells transiently overexpressing caspase-6 (Homo sapiens, UniProt P12004) (P12004 whole entry): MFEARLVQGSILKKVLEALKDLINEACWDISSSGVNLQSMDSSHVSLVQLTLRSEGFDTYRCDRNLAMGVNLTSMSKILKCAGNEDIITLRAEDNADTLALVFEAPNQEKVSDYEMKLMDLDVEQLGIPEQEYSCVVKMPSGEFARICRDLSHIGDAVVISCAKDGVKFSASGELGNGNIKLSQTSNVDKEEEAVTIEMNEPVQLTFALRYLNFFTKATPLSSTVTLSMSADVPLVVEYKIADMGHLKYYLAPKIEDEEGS
Chain of proteins of HEK293T cells transiently overexpressing caspase-6 (Homo sapiens, UniProt Q99798) (Q99798 28-780): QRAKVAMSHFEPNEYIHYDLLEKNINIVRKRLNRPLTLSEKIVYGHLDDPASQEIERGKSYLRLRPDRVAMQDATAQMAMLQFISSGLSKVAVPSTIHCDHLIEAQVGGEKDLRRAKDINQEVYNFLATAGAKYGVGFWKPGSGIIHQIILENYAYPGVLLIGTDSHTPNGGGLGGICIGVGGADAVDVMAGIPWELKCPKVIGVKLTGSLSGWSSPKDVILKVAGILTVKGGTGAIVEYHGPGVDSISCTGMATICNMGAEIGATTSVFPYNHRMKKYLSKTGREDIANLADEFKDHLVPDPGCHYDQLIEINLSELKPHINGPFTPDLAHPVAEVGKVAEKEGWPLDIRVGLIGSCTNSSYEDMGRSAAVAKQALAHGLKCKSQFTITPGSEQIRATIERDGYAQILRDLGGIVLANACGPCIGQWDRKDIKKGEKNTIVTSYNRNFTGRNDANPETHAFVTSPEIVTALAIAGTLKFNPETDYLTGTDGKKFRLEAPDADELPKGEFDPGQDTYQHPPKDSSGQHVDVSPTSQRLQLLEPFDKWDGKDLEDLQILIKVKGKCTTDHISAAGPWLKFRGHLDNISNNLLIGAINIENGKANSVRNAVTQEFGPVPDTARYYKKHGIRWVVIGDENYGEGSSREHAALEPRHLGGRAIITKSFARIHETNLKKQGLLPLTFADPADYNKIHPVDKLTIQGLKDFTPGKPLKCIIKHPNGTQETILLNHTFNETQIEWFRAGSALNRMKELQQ
Chain of proteins of HEK293T cells transiently overexpressing caspase-6 (Homo sapiens, UniProt P19013) (P19013 whole entry): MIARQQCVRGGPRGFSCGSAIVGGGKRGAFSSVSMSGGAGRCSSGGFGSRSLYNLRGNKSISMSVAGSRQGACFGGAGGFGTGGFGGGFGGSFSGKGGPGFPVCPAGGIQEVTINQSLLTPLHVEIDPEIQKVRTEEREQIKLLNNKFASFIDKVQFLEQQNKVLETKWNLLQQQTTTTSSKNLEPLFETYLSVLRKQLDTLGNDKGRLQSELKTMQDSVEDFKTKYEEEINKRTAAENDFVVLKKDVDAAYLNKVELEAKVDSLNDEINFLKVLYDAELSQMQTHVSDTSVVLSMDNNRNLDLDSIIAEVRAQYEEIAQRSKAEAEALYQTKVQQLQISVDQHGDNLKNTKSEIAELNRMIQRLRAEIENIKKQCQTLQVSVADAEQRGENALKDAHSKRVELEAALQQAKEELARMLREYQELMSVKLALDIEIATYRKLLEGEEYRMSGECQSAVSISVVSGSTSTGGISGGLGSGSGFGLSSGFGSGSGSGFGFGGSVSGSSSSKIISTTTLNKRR
Chain of proteins of HEK293T cells transiently overexpressing caspase-6 (Homo sapiens, UniProt P35998) (P35998 whole entry): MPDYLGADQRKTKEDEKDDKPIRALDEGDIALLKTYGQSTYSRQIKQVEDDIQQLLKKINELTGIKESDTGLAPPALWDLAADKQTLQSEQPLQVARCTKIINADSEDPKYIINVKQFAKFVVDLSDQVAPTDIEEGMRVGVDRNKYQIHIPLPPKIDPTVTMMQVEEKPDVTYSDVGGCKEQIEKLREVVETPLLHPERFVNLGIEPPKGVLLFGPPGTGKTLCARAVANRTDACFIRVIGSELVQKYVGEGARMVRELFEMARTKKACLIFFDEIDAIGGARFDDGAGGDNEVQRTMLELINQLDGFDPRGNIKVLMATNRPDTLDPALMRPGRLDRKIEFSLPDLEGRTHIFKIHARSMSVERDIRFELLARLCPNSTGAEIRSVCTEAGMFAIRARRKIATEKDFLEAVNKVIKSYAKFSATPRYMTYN
Chain of proteins of HEK293T cells transiently overexpressing caspase-6 (Homo sapiens, UniProt P07814) (P07814 whole entry): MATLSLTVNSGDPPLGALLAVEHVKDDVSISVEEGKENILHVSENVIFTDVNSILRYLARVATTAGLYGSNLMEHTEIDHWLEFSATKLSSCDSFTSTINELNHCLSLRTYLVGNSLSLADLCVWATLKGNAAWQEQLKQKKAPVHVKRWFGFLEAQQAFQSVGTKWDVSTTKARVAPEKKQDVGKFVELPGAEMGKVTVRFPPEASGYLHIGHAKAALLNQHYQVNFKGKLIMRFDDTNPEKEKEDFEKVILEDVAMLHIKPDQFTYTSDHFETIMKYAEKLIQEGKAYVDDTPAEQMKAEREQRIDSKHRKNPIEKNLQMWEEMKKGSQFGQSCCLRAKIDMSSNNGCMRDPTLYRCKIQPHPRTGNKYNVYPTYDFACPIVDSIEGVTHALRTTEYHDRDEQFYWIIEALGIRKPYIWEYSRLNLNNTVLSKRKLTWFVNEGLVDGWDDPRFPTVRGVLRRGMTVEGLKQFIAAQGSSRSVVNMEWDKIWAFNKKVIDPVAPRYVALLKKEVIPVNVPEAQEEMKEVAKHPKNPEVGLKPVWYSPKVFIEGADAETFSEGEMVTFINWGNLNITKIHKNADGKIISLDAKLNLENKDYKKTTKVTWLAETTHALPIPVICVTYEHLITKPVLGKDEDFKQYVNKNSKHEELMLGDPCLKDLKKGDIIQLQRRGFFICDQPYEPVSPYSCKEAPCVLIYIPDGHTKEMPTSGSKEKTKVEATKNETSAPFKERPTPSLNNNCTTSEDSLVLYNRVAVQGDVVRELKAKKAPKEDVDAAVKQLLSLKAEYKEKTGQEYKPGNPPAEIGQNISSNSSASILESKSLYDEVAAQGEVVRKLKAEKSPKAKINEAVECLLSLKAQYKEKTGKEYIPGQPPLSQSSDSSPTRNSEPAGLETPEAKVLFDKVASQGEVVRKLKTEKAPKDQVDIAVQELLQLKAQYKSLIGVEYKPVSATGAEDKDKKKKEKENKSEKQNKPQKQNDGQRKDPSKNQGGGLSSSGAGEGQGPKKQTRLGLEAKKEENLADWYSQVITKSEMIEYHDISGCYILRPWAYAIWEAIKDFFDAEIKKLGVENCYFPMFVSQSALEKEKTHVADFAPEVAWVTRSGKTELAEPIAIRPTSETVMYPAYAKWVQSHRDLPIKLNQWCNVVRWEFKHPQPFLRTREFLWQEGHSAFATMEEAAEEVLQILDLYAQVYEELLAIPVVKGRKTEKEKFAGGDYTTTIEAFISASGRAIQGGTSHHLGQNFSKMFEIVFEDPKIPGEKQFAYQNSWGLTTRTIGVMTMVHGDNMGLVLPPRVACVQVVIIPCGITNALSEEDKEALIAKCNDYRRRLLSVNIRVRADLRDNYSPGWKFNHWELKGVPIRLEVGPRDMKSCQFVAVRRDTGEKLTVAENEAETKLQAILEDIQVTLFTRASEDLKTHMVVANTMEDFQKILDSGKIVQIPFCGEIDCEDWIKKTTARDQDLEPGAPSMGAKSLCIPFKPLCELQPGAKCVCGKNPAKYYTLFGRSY
Chain of proteins of HEK293T cells transiently overexpressing caspase-6 (Homo sapiens, UniProt Q86VP6) (Q86VP6 whole entry): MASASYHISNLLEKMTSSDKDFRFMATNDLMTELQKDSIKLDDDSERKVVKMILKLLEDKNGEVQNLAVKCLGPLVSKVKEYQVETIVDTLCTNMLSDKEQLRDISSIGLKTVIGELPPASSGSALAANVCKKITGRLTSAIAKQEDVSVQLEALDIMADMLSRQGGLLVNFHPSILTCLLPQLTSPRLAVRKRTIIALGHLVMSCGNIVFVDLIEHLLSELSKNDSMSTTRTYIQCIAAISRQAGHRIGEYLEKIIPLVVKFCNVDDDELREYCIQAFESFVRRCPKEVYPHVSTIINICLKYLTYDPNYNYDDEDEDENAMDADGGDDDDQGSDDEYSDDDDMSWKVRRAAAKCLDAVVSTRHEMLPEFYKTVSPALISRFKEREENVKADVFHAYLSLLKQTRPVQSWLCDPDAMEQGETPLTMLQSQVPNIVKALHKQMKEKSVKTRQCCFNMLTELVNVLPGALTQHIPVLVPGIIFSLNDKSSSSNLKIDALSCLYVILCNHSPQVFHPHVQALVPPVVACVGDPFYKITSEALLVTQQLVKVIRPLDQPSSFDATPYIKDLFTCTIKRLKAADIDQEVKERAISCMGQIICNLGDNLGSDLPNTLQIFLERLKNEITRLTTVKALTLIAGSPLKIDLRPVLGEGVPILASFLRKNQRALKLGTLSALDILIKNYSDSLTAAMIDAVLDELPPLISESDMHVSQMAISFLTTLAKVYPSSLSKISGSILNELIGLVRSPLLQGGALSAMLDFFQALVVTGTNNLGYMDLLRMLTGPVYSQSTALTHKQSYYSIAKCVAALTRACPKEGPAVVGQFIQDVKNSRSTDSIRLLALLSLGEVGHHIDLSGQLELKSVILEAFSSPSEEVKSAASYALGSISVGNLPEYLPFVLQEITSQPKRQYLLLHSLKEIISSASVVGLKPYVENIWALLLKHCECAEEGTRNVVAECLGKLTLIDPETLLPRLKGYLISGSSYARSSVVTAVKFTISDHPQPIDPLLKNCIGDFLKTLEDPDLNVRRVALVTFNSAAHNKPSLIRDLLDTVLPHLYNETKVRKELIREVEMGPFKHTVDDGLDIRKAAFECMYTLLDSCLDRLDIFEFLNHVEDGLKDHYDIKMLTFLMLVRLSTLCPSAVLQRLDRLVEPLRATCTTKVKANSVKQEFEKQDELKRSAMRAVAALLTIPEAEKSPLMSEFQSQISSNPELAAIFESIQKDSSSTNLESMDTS
Chain of proteins of HEK293T cells transiently overexpressing caspase-6 (Homo sapiens, UniProt Q9BRX8) (Q9BRX8 whole entry): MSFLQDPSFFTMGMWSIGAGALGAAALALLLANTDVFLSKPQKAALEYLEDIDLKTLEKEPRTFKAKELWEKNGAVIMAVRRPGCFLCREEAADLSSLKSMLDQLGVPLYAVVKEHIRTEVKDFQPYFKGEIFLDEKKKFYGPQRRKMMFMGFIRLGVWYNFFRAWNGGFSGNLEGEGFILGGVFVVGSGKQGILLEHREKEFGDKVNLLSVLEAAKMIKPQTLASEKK

## C#CCOc1ccc([C@@H]2C[C@@H](C(=O)Nc3ccc(OC(F)(F)F)cc3)CN(S(=O)(=O)C=C)C2)cc1 (relative stereo) [13-t]
[1]
  enrich.exp.med: -8.503
[2]
  enrich.exp.med: -4.171
[3]
  enrich.exp.med: 0.5173
[4]
  enrich.exp.med: 0.5412
[5]; exp_ref Probe, analysis C6
  enrich.exp.med: 0.8638
[5]
  enrich.exp.med.lin: 1.82
  enrich.exp.med.log2: 0.8638
[6]
  enrich.exp.med: -0.3317
[7]
  enrich.exp.med: -0.5802
[8]
  enrich.exp.med: 0.8492
[9]; Probe, protein PRDX3 P30048
  enrich.exp.med: -1.058
[9]; protein PRDX3 (P30048)
  enrich.exp.med.lin: 0.4804
  enrich.exp.med.log2: -1.058
[10]
  enrich.exp.med: 0.5563
[11]; exp_ref Probe, analysis C6
  enrich.exp.med: 0.788
[11]
  enrich.exp.med.lin: 1.727
  enrich.exp.med.log2: 0.788
[12]; protein CASP6LARGE (P55212), analysis C6
  enrich.exp.med: 0.6468
[12]; protein CASP6LARGE (P55212)
  enrich.exp.med.lin: 1.566
  enrich.exp.med.log2: 0.6468
[12]; protein CASP6SMALL (P55212)
  enrich.exp.med.lin: 9.435
  enrich.exp.med.log2: 3.238
[12]; [14]
  enrich.exp.med.lin: 9.435
  enrich.exp.med.log2: 3.238
[12]; protein CASP6SMALL (P55212), analysis C6
  enrich.exp.med: 3.238
[13]
  enrich.exp.med: -0.9693
